Patent publication US20230143604A1, “QW DOSING OF GIP RECEPTOR AGONIST PEPTIDE COMPOUNDS AND USES THEREOF” (TAKEDA PHARMACEUTICAL COMPANY LIMITED, priority 2020, published 2023)
Starred links: 1 amine or outer side, 2 acyl side, 3 side chain; linkers in the order of their positions; H or OH if unused. Non-standard residues stand in square brackets, D forms with d. Residues, ends and D or L forms follow the SMILES beside them. Groups on a side chain read outwards from the residue. *: point of attachment. C18 diacid = O=C(O)CCCCCCCCCCCCCCCCC(=O)*; C17 diacid = O=C(O)CCCCCCCCCCCCCCCC(=O)*; γGlu = O=C(O)[C@H](CCC(=O)[*:2])N[*:1]; NMeY = CN[C@@H](Cc1ccc(O)cc1)C(=O)O; AEEA = NCCOCCOCC(=O)O; Aib = CC(C)(N)C(=O)O

Assay: physchem
In short: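 3 mg of peptide treated with 100 μL portions of 200 mM phosphate buffer pH 7.4, sonicating/vortexing up to 1 min, with further buffer added until fully dissolved. Solubility then quantified by HPLC.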

[1] = pH 7.4, aqueous buffer, pH 7.4 Phosphate Buffer - Solubility, 200 mM Phosphate buffer pH 7.4
[2] = pH 7.4, solubility in phosphate buffer at pH 7.4, 200 mM phosphate buffer pH 7.4

## CC[C@H](C)[C@H](NC(=O)[C@H](Cc1ccccc1)NC(=O)[C@@H](NC(=O)CNC(=O)[C@H](CCC(=O)O)NC(=O)C(C)(C)NC(=O)[C@H](Cc1ccc(O)cc1)NC)[C@@H](C)O)C(=O)N[C@@H](CO)C(=O)N[C@@H](CC(=O)O)C(=O)N[C@@H](Cc1ccc(O)cc1)C(=O)N[C@@H](CO)C(=O)N[C@H](C(=O)NC(C)(C)C(=O)N[C@@H](CCCCNC(=O)COCCOCCNC(=O)COCCOCCNC(=O)CC[C@H](NC(=O)CC[C@H](NC(=O)CCCCCCCCCCCCCCCC(=O)O)C(=O)O)C(=O)O)C(=O)N[C@@H](CC(=O)O)C(=O)N[C@@H](CCCNC(=N)N)C(=O)NC(C)(C)C(=O)N[C@@H](C)C(=O)N[C@@H](CCC(N)=O)C(=O)NC(C)(C)C(=O)N[C@@H](CC(N)=O)C(=O)N[C@@H](Cc1ccccc1)C(=O)N[C@H](C(=O)N[C@@H](CC(N)=O)C(=O)N[C@@H](Cc1c[nH]c2ccccc12)C(=O)N[C@@H](CC(C)C)C(=O)N[C@@H](CC(C)C)C(=O)N[C@@H](C)C(=O)N[C@@H](CCC(N)=O)C(=O)N[C@@H](CCCNC(=N)N)C(=O)NCC(=O)NCC(=O)NCC(=O)NCC(=O)N[C@@H](CO)C(N)=O)C(C)C)[C@@H](C)CC [Compound 32] (H-[NMeY][Aib]EGTFISDYSI[Aib]K([AEEA-AEEA-γGlu-γGlu-C17 diacid])DR[Aib]AQ[Aib]NFVNWLLAQRGGGGS-NH2)
pH 7.4
  solubility: ≥ 15 mg/mL
pH 7.4, aqueous buffer
  solubility: ≥ 30 mg/mL

## CC[C@H](C)[C@H](NC(=O)[C@H](Cc1ccccc1)NC(=O)[C@@H](NC(=O)CNC(=O)[C@H](CCC(=O)O)NC(=O)C(C)(C)NC(=O)[C@H](Cc1ccc(O)cc1)NC)[C@@H](C)O)C(=O)N[C@@H](CO)C(=O)N[C@@H](CC(=O)O)C(=O)N[C@@H](Cc1ccc(O)cc1)C(=O)N[C@@H](CO)C(=O)N[C@H](C(=O)NC(C)(C)C(=O)N[C@@H](CC(C)C)C(=O)N[C@@H](CC(=O)O)C(=O)N[C@@H](CCCNC(=N)N)C(=O)NC(C)(C)C(=O)N[C@@H](C)C(=O)N[C@@H](CCC(N)=O)C(=O)NC(C)(C)C(=O)N[C@@H](CC(N)=O)C(=O)N[C@@H](Cc1ccccc1)C(=O)N[C@H](C(=O)N[C@@H](CC(N)=O)C(=O)N[C@@H](Cc1c[nH]c2ccccc12)C(=O)N[C@@H](CC(C)C)C(=O)N[C@@H](CC(C)C)C(=O)N[C@@H](C)C(=O)N[C@@H](CCC(N)=O)C(=O)N[C@@H](CCCCNC(=O)COCCOCCNC(=O)COCCOCCNC(=O)CC[C@H](NC(=O)CC[C@H](NC(=O)CCCCCCCCCCCCCCCC(=O)O)C(=O)O)C(=O)O)C(=O)NCC(=O)NCC(=O)NCC(=O)NCC(=O)N[C@@H](CO)C(N)=O)C(C)C)[C@@H](C)CC [Compound 33] (H-[NMeY][Aib]EGTFISDYSI[Aib]LDR[Aib]AQ[Aib]NFVNWLLAQK([AEEA-AEEA-γGlu-γGlu-C17 diacid])GGGGS-NH2)
pH 7.4
  solubility: ≥ 15 mg/mL
pH 7.4, aqueous buffer
  solubility: ≥ 30 mg/mL

## CC[C@H](C)[C@H](NC(=O)[C@H](CO)NC(=O)[C@H](Cc1ccc(O)cc1)NC(=O)[C@H](CC(=O)O)NC(=O)[C@H](CO)NC(=O)[C@@H](NC(=O)[C@H](Cc1ccccc1)NC(=O)[C@@H](NC(=O)CNC(=O)[C@H](CCC(=O)O)NC(=O)C(C)(C)NC(=O)[C@H](Cc1ccc(O)cc1)NC)[C@@H](C)O)[C@@H](C)CC)C(=O)N[C@@H](C)C(=O)N[C@@H](CCCCNC(=O)CNC(=O)CNC(=O)CNC(=O)CNC(=O)CNC(=O)CC[C@H](NC(=O)CC[C@H](NC(=O)CCCCCCCCCCCCCCCCC(=O)O)C(=O)O)C(=O)O)C(=O)N[C@@H](CC(=O)O)C(=O)N[C@@H](CCCNC(=N)N)C(=O)NC(C)(C)C(=O)N[C@@H](C)C(=O)N[C@@H](CCC(N)=O)C(=O)NC(C)(C)C(=O)N[C@@H](CC(N)=O)C(=O)N[C@@H](Cc1ccccc1)C(=O)N[C@H](C(=O)N[C@@H](CC(N)=O)C(=O)N[C@@H](Cc1c[nH]c2ccccc12)C(=O)N[C@@H](CC(C)C)C(=O)N[C@@H](CC(C)C)C(=O)N[C@@H](C)C(=O)N[C@@H](CCC(N)=O)C(=O)N[C@@H](CCCNC(=N)N)C(=O)N1CCC[C@H]1C(=O)N[C@@H](CO)C(=O)N[C@@H](CO)C(=O)NCC(=O)N[C@@H](C)C(=O)N1CCC[C@H]1C(=O)N1CCC[C@H]1C(=O)N1CCC[C@H]1C(=O)N[C@@H](CO)C(N)=O)C(C)C [Compound 34]
[1]
  solubility: ≥ 30 mg/mL
[2]
  solubility: ≥ 15 mg/mL

## CC[C@H](C)[C@H](NC(=O)[C@H](CO)NC(=O)[C@H](Cc1ccc(O)cc1)NC(=O)[C@H](CC(=O)O)NC(=O)[C@H](CO)NC(=O)[C@@H](NC(=O)[C@H](Cc1ccccc1)NC(=O)[C@@H](NC(=O)CNC(=O)[C@H](CCC(=O)O)NC(=O)C(C)(C)NC(=O)[C@H](Cc1ccc(O)cc1)NC)[C@@H](C)O)[C@@H](C)CC)C(=O)N[C@@H](C)C(=O)N[C@@H](CC(C)C)C(=O)N[C@@H](CC(=O)O)C(=O)N[C@@H](CCCNC(=N)N)C(=O)NC(C)(C)C(=O)N[C@@H](C)C(=O)N[C@@H](CCC(N)=O)C(=O)NC(C)(C)C(=O)N[C@@H](CCCCNC(=O)COCCOCCNC(=O)COCCOCCNC(=O)CC[C@H](NC(=O)CC[C@H](NC(=O)CCCCCCCCCCCCCCCCC(=O)O)C(=O)O)C(=O)O)C(=O)N[C@@H](Cc1ccccc1)C(=O)N[C@H](C(=O)N[C@@H](CC(N)=O)C(=O)N[C@@H](Cc1c[nH]c2ccccc12)C(=O)N[C@@H](CC(C)C)C(=O)N[C@@H](CC(C)C)C(=O)N[C@@H](C)C(=O)N[C@@H](CCC(N)=O)C(=O)N[C@@H](CCCNC(=N)N)C(=O)N1CCC[C@H]1C(=O)N[C@@H](CO)C(=O)N[C@@H](CO)C(=O)NCC(=O)N[C@@H](C)C(=O)N1CCC[C@H]1C(=O)N1CCC[C@H]1C(=O)N1CCC[C@H]1C(=O)N[C@@H](CO)C(N)=O)C(C)C [Compound 35] (H-[NMeY][Aib]EGTFISDYSIALDR[Aib]AQ[Aib]K([AEEA-AEEA-γGlu-γGlu-C18 diacid])FVNWLLAQRPSSGAPPPS-NH2)
[1]
  solubility: ≥ 30 mg/mL
[2]
  solubility: ≥ 15 mg/mL

## CC[C@H](C)[C@H](NC(=O)[C@H](CO)NC(=O)[C@H](Cc1ccc(O)cc1)NC(=O)[C@H](CC(=O)O)NC(=O)[C@H](CO)NC(=O)[C@@H](NC(=O)[C@H](Cc1ccccc1)NC(=O)[C@@H](NC(=O)CNC(=O)[C@H](CCC(=O)O)NC(=O)C(C)(C)NC(=O)[C@H](Cc1ccc(O)cc1)NC)[C@@H](C)O)[C@@H](C)CC)C(=O)N[C@@H](C)C(=O)N[C@@H](CC(C)C)C(=O)N[C@@H](CC(=O)O)C(=O)N[C@@H](CCCNC(=N)N)C(=O)NC(C)(C)C(=O)N[C@@H](C)C(=O)N[C@@H](CCC(N)=O)C(=O)NC(C)(C)C(=O)N[C@@H](CCCCNC(=O)COCCOCCNC(=O)COCCOCCNC(=O)CC[C@H](NC(=O)CC[C@H](NC(=O)CCCCCCCCCCCCCCCCC(=O)O)C(=O)O)C(=O)O)C(=O)N[C@@H](Cc1ccccc1)C(=O)N[C@H](C(=O)N[C@@H](CC(N)=O)C(=O)N[C@@H](Cc1c[nH]c2ccccc12)C(=O)N[C@@H](CC(C)C)C(=O)N[C@@H](CC(C)C)C(=O)N[C@@H](C)C(=O)N[C@@H](CCC(N)=O)C(=O)N[C@@H](CO)C(=O)NCC(=O)O)C(C)C [Compound 42] (H-[NMeY][Aib]EGTFISDYSIALDR[Aib]AQ[Aib]K([AEEA-AEEA-γGlu-γGlu-C18 diacid])FVNWLLAQSG-OH)
pH 7.4
  solubility: ≥ 15 mg/mL
pH 7.4, aqueous buffer
  solubility: ≥ 30 mg/mL

## CC[C@H](C)[C@H](NC(=O)[C@H](CO)NC(=O)[C@H](Cc1ccc(O)cc1)NC(=O)[C@H](CC(=O)O)NC(=O)[C@H](CO)NC(=O)[C@@H](NC(=O)[C@H](Cc1ccccc1)NC(=O)[C@@H](NC(=O)CNC(=O)[C@H](CCC(=O)O)NC(=O)C(C)(C)NC(=O)[C@H](Cc1ccc(O)cc1)NC)[C@@H](C)O)[C@@H](C)CC)C(=O)N[C@@H](C)C(=O)N[C@@H](CC(C)C)C(=O)N[C@@H](CC(=O)O)C(=O)N[C@@H](CCCNC(=N)N)C(=O)NC(C)(C)C(=O)N[C@@H](CCCCNC(=O)COCCOCCNC(=O)COCCOCCNC(=O)CC[C@H](NC(=O)CC[C@H](NC(=O)CCCCCCCCCCCCCCCCC(=O)O)C(=O)O)C(=O)O)C(=O)N[C@@H](CCC(N)=O)C(=O)NC(C)(C)C(=O)N[C@@H](CC(N)=O)C(=O)N[C@@H](Cc1ccccc1)C(=O)N[C@H](C(=O)N[C@@H](CC(N)=O)C(=O)N[C@@H](Cc1c[nH]c2ccccc12)C(=O)N[C@@H](CC(C)C)C(=O)N[C@@H](CC(C)C)C(=O)N[C@@H](C)C(=O)N[C@@H](CCC(N)=O)C(=O)N[C@@H](CO)C(=O)NCC(=O)O)C(C)C [Compound 46] (H-[NMeY][Aib]EGTFISDYSIALDR[Aib]K([AEEA-AEEA-γGlu-γGlu-C18 diacid])Q[Aib]NFVNWLLAQSG-OH)
pH 7.4
  solubility: ≥ 15 mg/mL
pH 7.4, aqueous buffer
  solubility: ≥ 30 mg/mL

## CC[C@H](C)[C@H](NC(=O)[C@H](CO)NC(=O)[C@H](Cc1ccc(O)cc1)NC(=O)[C@H](CC(=O)O)NC(=O)[C@H](CO)NC(=O)[C@@H](NC(=O)[C@H](Cc1ccccc1)NC(=O)[C@@H](NC(=O)CNC(=O)[C@H](CCC(=O)O)NC(=O)C(C)(C)NC(=O)[C@H](Cc1ccc(O)cc1)NC)[C@@H](C)O)[C@@H](C)CC)C(=O)N[C@@H](C)C(=O)N[C@@H](CC(C)C)C(=O)N[C@@H](CC(=O)O)C(=O)N[C@@H](CCCNC(=N)N)C(=O)NC(C)(C)C(=O)N[C@@H](CCCCNC(=O)COCCOCCNC(=O)COCCOCCNC(=O)CC[C@H](NC(=O)CC[C@H](NC(=O)CCCCCCCCCCCCCCCCC(=O)O)C(=O)O)C(=O)O)C(=O)N[C@@H](CCC(N)=O)C(=O)NC(C)(C)C(=O)N[C@@H](CC(=O)O)C(=O)N[C@@H](Cc1ccccc1)C(=O)N[C@H](C(=O)N[C@@H](CC(N)=O)C(=O)N[C@@H](Cc1c[nH]c2ccccc12)C(=O)N[C@@H](CC(C)C)C(=O)N[C@@H](CC(C)C)C(=O)N[C@@H](C)C(=O)N[C@@H](CCC(N)=O)C(=O)N[C@@H](CCCNC(=N)N)C(=O)NCC(=O)O)C(C)C [Compound 49] (H-[NMeY][Aib]EGTFISDYSIALDR[Aib]K([AEEA-AEEA-γGlu-γGlu-C18 diacid])Q[Aib]DFVNWLLAQRG-OH)
pH 7.4
  solubility: ≥ 15 mg/mL
pH 7.4, aqueous buffer
  solubility: ≥ 30 mg/mL
